According to ChEMBL document CHEMBL3217499, “Membrane disrupting antimicrobial peptide dendrimers with multiple amino termini” (Medchemcomm, 2012):
Values after ≈ are worked out from the molar mass of the structure shown. Where a SMILES comes first, the peptide text is derived from it. Bridges are numbered along the chain shown (N, C = ends). Roman numbers before positions name the chains, in order. Side-chain parts run from the residue outwards. The star is where a group is joined. X3 = CC(=O)N[C@@H](CC(C)C)C(=O)NCCCC[C@H](NC(=O)[C@H](CC(C)C)NC(C)=O)C(=O)*; LeuLys(Leu) = CC(C)C[C@H](N)C(=O)NCCCC[C@H](NC(=O)[C@@H](N)CC(C)C)C(=O)*; X4 = C[C@H](N)C(=O)NCCCC[C@H](NC(=O)[C@H](C)N)C(=O)*

Tests used:
Staphylococcus aureus [1] = assay: Antibacterial activity against Staphylococcus aureus ATCC 29213 by broth microdilution assay; assay type: functional
Pseudomonas aeruginosa [2] = assay: Antibacterial activity against Pseudomonas aeruginosa PAO1 after 18 to 24 hrs by broth microdilution assay; assay type: functional
Enterococcus faecalis [3] = assay: Antibacterial activity against Enterococcus faecalis ATCC 29212 by broth microdilution assay; assay type: functional
Escherichia coli [4] = assay: Antibacterial activity against Escherichia coli ATCC 25922 by broth microdilution assay; assay type: functional
Pseudomonas aeruginosa [5] = assay: Antibacterial activity against Pseudomonas aeruginosa PAO1 HS by broth microdilution assay; assay type: functional
Staphylococcus aureus [6] = assay: Antibacterial activity against methicillin-resistant Staphylococcus aureus 42080 by broth microdilution assay; assay type: functional
Pseudomonas aeruginosa [7] = assay: Antibacterial activity against Pseudomonas aeruginosa ATCC 27853 by broth microdilution assay; assay type: functional
Enterococcus faecalis [8] = assay: Antibacterial activity against Enterococcus faecalis Van BE80-8 by broth microdilution assay; assay type: functional
Bacillus subtilis = assay: Antibacterial activity against Bacillus subtilis BR151 after 18 to 24 hrs by broth microdilution assay; assay type: functional
Pseudomonas aeruginosa [9] = assay: Antibacterial activity against Pseudomonas aeruginosa K799/WT by broth microdilution assay; assay type: functional
[10] = Hemolytic activity in human RBC after 4 hrs; assay type: ADME, cell-based; details: erythrocyte
Escherichia coli [11] = assay: Antibacterial activity against Escherichia coli DH5[alpha] after 18 to 24 hrs by broth microdilution assay; assay type: functional
Pseudomonas aeruginosa [12] = assay: Antibacterial activity against Pseudomonas aeruginosa K799/61 by broth microdilution assay; assay type: functional
Pseudomonas aeruginosa [13] = assay: Antibacterial activity against Pseudomonas aeruginosa 8S/H by broth microdilution assay; assay type: functional

| SMILES | MIC (Pseudomonas aeruginosa [2]) [mg/L] | MIC (Bacillus subtilis) [mg/L] | MIC (Escherichia coli [11]) [mg/L] | MIC (Staphylococcus aureus [1]) [mg/L] | MIC (Enterococcus faecalis [3]) [mg/L] | MIC (Escherichia coli [4]) [mg/L] | MIC (Pseudomonas aeruginosa [5]) [mg/L] | MIC (Staphylococcus aureus [6]) [mg/L] | MIC (Pseudomonas aeruginosa [7]) [mg/L] | MIC (Enterococcus faecalis [8]) [mg/L] | MIC (Pseudomonas aeruginosa [9]) [mg/L] | MHC [10] [µg/mL] | MIC (Pseudomonas aeruginosa [12]) [mg/L] | MIC (Pseudomonas aeruginosa [13]) [mg/L] |
| --- | --- | --- | --- | --- | --- | --- | --- | --- | --- | --- | --- | --- | --- | --- |
| CC(C)C[C@H](N)C(=O)NCCCC[C@H](NC(=O)[C@@H](N)CC(C)C)C(=O)N[C@@H](Cc1ccccc1)C(=O)NCCCC[C@H](NC(=O)[C@H](Cc1ccccc1)NC(=O)[C@H](CCCCNC(=O)[C@@H](N)CC(C)C)NC(=O)[C@@H](N)CC(C)C)C(=O)N1CCC[C@H]1C(=O)NCCCC[C@H](NC(=O)[C@@H]1CCCN1C(=O)[C@H](CCCCNC(=O)[C@H](Cc1ccccc1)NC(=O)[C@H](CCCCNC(=O)[C@@H](N)CC(C)C)NC(=O)[C@@H](N)CC(C)C)NC(=O)[C@H](Cc1ccccc1)NC(=O)[C@H](CCCCNC(=O)[C@@H](N)CC(C)C)NC(=O)[C@@H](N)CC(C)C)C(=O)N[C@@H](CCCCN)C(N)=O | 66 (≈ 24.2 µM) | 2 (≈ 0.732 µM) | 19 (≈ 6.96 µM) | > 32 | > 32 | > 32 | > 32 | > 32 | > 32 | > 32 | > 32 | > 10000 | > 32 | > 32 |
| CC(=O)N[C@@H](CC(C)C)C(=O)NCCCC[C@H](NC(=O)[C@H](CC(C)C)NC(C)=O)C(=O)N[C@@H](Cc1ccccc1)C(=O)NCCCC[C@H](NC(=O)[C@H](Cc1ccccc1)NC(=O)[C@H](CCCCNC(=O)[C@H](CC(C)C)NC(C)=O)NC(=O)[C@H](CC(C)C)NC(C)=O)C(=O)N1CCC[C@H]1C(=O)NCCCC[C@H](NC(=O)[C@@H]1CCCN1C(=O)[C@H](CCCCNC(=O)[C@H](Cc1ccccc1)NC(=O)[C@H](CCCCNC(=O)[C@H](CC(C)C)NC(C)=O)NC(=O)[C@H](CC(C)C)NC(C)=O)NC(=O)[C@H](Cc1ccccc1)NC(=O)[C@H](CCCCNC(=O)[C@H](CC(C)C)NC(C)=O)NC(=O)[C@H](CC(C)C)NC(C)=O)C(=O)N[C@@H](CCCCN)C(N)=O (I: Ac-LK([Leu-Ac])FK([Phe-X3])PKK-NH2 / II: Ac-LK([Leu-Ac])FK([Phe-X3])P; amide I:6-II:C) |  |  |  | > 32 | > 32 | > 32 | > 32 | > 32 | > 32 | > 32 | > 32 |  | > 32 | > 32 |
| CC(=O)N[C@@H](CC(C)C)C(=O)NCCCC[C@H](NC(=O)[C@H](CC(C)C)NC(C)=O)C(=O)N[C@@H](CC(C)C)C(=O)NCCCC[C@H](NC(=O)[C@H](CC(C)C)NC(=O)[C@H](CCCCNC(=O)[C@H](CC(C)C)NC(C)=O)NC(=O)[C@H](CC(C)C)NC(C)=O)C(=O)N[C@@H](Cc1ccccc1)C(=O)NCCCC[C@H](NC(=O)[C@H](Cc1ccccc1)NC(=O)[C@H](CCCCNC(=O)[C@H](CC(C)C)NC(=O)[C@H](CCCCNC(=O)[C@H](CC(C)C)NC(C)=O)NC(=O)[C@H](CC(C)C)NC(C)=O)NC(=O)[C@H](CC(C)C)NC(=O)[C@H](CCCCNC(=O)[C@H](CC(C)C)NC(C)=O)NC(=O)[C@H](CC(C)C)NC(C)=O)C(=O)N[C@@H](CCCCN)C(N)=O (I: Ac-LK([Leu-Ac])LK([Leu-X3])FKK-NH2 / II: Ac-LK([Leu-Ac])LK([Leu-X3])F; amide I:6-II:C) |  |  |  | > 32 | > 32 | > 32 | > 32 | > 32 | > 32 | > 32 | > 32 |  | > 32 | > 32 |
| CC(C)C[C@H](NC(=O)[C@H](CCCCNC(=O)[C@@H](N)CC(C)C)NC(=O)[C@@H](N)CC(C)C)C(=O)NCCCC[C@H](NC(=O)[C@H](CC(C)C)NC(=O)[C@H](CCCCNC(=O)[C@@H](N)CC(C)C)NC(=O)[C@@H](N)CC(C)C)C(=O)N[C@@H](C)C(=O)NCCCC[C@H](NC(=O)[C@H](C)NC(=O)[C@H](CCCCNC(=O)[C@H](CC(C)C)NC(=O)[C@H](CCCCNC(=O)[C@@H](N)CC(C)C)NC(=O)[C@@H](N)CC(C)C)NC(=O)[C@H](CC(C)C)NC(=O)[C@H](CCCCNC(=O)[C@@H](N)CC(C)C)NC(=O)[C@@H](N)CC(C)C)C(=O)N[C@@H](CCCCN)C(N)=O (I: H-LK(Leu)LK([Leu-LeuLys(Leu)])AKK-NH2 / II: H-LK(Leu)LK([Leu-LeuLys(Leu)])A; amide I:6-II:C) | 67 (≈ 26.4 µM) | 4.5 (≈ 1.77 µM) | > 100 |  |  |  |  |  |  |  |  | > 2000 |  |  |

The next lines start with results.

| MIC (Pseudomonas aeruginosa [2]) [mg/L] | MIC (Bacillus subtilis) [mg/L] | MIC (Escherichia coli [11]) [mg/L] | SMILES | MIC (Staphylococcus aureus [1]) [mg/L] | MIC (Enterococcus faecalis [3]) [mg/L] | MIC (Escherichia coli [4]) [mg/L] | MIC (Pseudomonas aeruginosa [5]) [mg/L] | MIC (Staphylococcus aureus [6]) [mg/L] | MIC (Pseudomonas aeruginosa [7]) [mg/L] | MIC (Enterococcus faecalis [8]) [mg/L] | MIC (Pseudomonas aeruginosa [9]) [mg/L] | MHC [10] [µg/mL] | MIC (Pseudomonas aeruginosa [12]) [mg/L] | MIC (Pseudomonas aeruginosa [13]) [mg/L] |
| --- | --- | --- | --- | --- | --- | --- | --- | --- | --- | --- | --- | --- | --- | --- |
| 60 (≈ 22.3 µM) | 2.5 (≈ 0.928 µM) | 15 (≈ 5.57 µM) | CC(C)C[C@@H](N)C(=O)NCCCC[C@H](NC(=O)[C@H](N)CC(C)C)C(=O)N[C@H](CC(C)C)C(=O)NCCCC[C@H](NC(=O)[C@@H](CC(C)C)NC(=O)[C@H](CCCCNC(=O)[C@H](N)CC(C)C)NC(=O)[C@H](N)CC(C)C)C(=O)N[C@H](Cc1ccccc1)C(=O)NCCCC[C@H](NC(=O)[C@@H](Cc1ccccc1)NC(=O)[C@H](CCCCNC(=O)[C@@H](CC(C)C)NC(=O)[C@H](CCCCNC(=O)[C@H](N)CC(C)C)NC(=O)[C@H](N)CC(C)C)NC(=O)[C@@H](CC(C)C)NC(=O)[C@H](CCCCNC(=O)[C@H](N)CC(C)C)NC(=O)[C@H](N)CC(C)C)C(=O)N[C@H](CCCCN)C(N)=O |  |  |  |  |  |  |  |  | > 10000 |  |  |
| 60 (≈ 22 µM) | 4.4 (≈ 1.61 µM) | 11 (≈ 4.03 µM) | CC(C)C[C@@H](N)C(=O)NCCCC[C@H](NC(=O)[C@H](N)CC(C)C)C(=O)N[C@H](Cc1ccccc1)C(=O)NCCCC[C@H](NC(=O)[C@@H](Cc1ccccc1)NC(=O)[C@H](CCCCNC(=O)[C@H](N)CC(C)C)NC(=O)[C@H](N)CC(C)C)C(=O)N1CCC[C@@H]1C(=O)NCCCC[C@H](NC(=O)[C@H]1CCCN1C(=O)[C@H](CCCCNC(=O)[C@@H](Cc1ccccc1)NC(=O)[C@H](CCCCNC(=O)[C@H](N)CC(C)C)NC(=O)[C@H](N)CC(C)C)NC(=O)[C@@H](Cc1ccccc1)NC(=O)[C@H](CCCCNC(=O)[C@H](N)CC(C)C)NC(=O)[C@H](N)CC(C)C)C(=O)N[C@H](CCCCN)C(N)=O |  |  |  |  |  |  |  |  | > 10000 |  |  |
| 67 (≈ 28.4 µM) | > 100 | > 100 | CC(C)C[C@H](NC(=O)[C@H](CCCCNC(=O)[C@H](C)N)NC(=O)[C@H](C)N)C(=O)NCCCC[C@H](NC(=O)[C@H](CC(C)C)NC(=O)[C@H](CCCCNC(=O)[C@H](C)N)NC(=O)[C@H](C)N)C(=O)N[C@@H](Cc1ccccc1)C(=O)NCCCC[C@H](NC(=O)[C@H](Cc1ccccc1)NC(=O)[C@H](CCCCNC(=O)[C@H](CC(C)C)NC(=O)[C@H](CCCCNC(=O)[C@H](C)N)NC(=O)[C@H](C)N)NC(=O)[C@H](CC(C)C)NC(=O)[C@H](CCCCNC(=O)[C@H](C)N)NC(=O)[C@H](C)N)C(=O)N[C@@H](CCCCN)C(N)=O (I: H-AK(Ala)LK([Leu-X4])FKK-NH2 / II: H-AK(Ala)LK([Leu-X4])F; amide I:6-II:C) |  |  |  |  |  |  |  |  | 1000 |  |  |
| > 100 | 67 (≈ 26.5 µM) | > 100 | CC(C)C[C@H](N)C(=O)NCCCC[C@H](NC(=O)[C@@H](N)CC(C)C)C(=O)N[C@@H](C)C(=O)NCCCC[C@H](NC(=O)[C@H](C)NC(=O)[C@H](CCCCNC(=O)[C@@H](N)CC(C)C)NC(=O)[C@@H](N)CC(C)C)C(=O)N[C@@H](Cc1ccccc1)C(=O)NCCCC[C@H](NC(=O)[C@H](Cc1ccccc1)NC(=O)[C@H](CCCCNC(=O)[C@H](C)NC(=O)[C@H](CCCCNC(=O)[C@@H](N)CC(C)C)NC(=O)[C@@H](N)CC(C)C)NC(=O)[C@H](C)NC(=O)[C@H](CCCCNC(=O)[C@@H](N)CC(C)C)NC(=O)[C@@H](N)CC(C)C)C(=O)N[C@@H](CCCCN)C(N)=O (I: H-LK(Leu)AK([Ala-LeuLys(Leu)])FKK-NH2 / II: H-LK(Leu)AK([Ala-LeuLys(Leu)])F; amide I:6-II:C) |  |  |  |  |  |  |  |  | > 2000 |  |  |
| ≥ 100 | 2 (≈ 0.758 µM) | 15 (≈ 5.69 µM) | CC(C)C[C@H](NC(=O)[C@H](CCCCNC(=O)[C@@H](N)CC(C)C)NC(=O)[C@@H](N)CC(C)C)C(=O)NCCCC[C@H](NC(=O)[C@H](CC(C)C)NC(=O)[C@H](CCCCNC(=O)[C@@H](N)CC(C)C)NC(=O)[C@@H](N)CC(C)C)C(=O)N[C@@H](Cc1ccccc1)C(=O)NCCCC[C@H](NC(=O)[C@H](Cc1ccccc1)NC(=O)[C@H](CCCCNC(=O)[C@H](CC(C)C)NC(=O)[C@H](CCCCNC(=O)[C@@H](N)CC(C)C)NC(=O)[C@@H](N)CC(C)C)NC(=O)[C@H](CC(C)C)NC(=O)[C@H](CCCCNC(=O)[C@@H](N)CC(C)C)NC(=O)[C@@H](N)CC(C)C)C(=O)N[C@@H](C)C(N)=O (I: H-LK(Leu)LK([Leu-LeuLys(Leu)])FKA-NH2 / II: H-LK(Leu)LK([Leu-LeuLys(Leu)])F; amide I:6-II:C) |  |  |  |  |  |  |  |  | 31 |  |  |
